Test results as given in publication PMC3475717, “A Spiroligomer α-Helix Mimic That Binds HDM2, Penetrates Human Cells and Stabilizes HDM2 in Cell Culture” (PLoS ONE, 2012).
“And” between values parts separate entries of the source, which are not always exact repeats. Equal values may be shown once. “Also recorded” adds a separate entry of the source.

Assays:
HDM2_25–117 = target: T1, HDM2_25–117 (Homo sapiens, UniProt Q00987); experiment: direct binding fluorescence polarization assay; settings: for fluorescence polarization: oligomer 10 nM, three independent replicates
T1 construct: unnamed fusion partner ('fusion protein'); made in house; host or cells: E. coli BL21
T1 sequence (Q00987 25-117): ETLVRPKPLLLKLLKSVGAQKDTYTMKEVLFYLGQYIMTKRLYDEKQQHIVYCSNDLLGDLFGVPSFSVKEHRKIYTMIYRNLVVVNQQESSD
Method: To measure the binding affinity of the functionalized spiroligomers to HDM2 we utilized a direct binding fluorescence polarization assay. The binding of the fluorescein labeled spiroligomers was measured at 10 nM spiroligomer in the presence of varying concentrations of HDM2_25–117 [31]. […] The initial screen of spiroligomers including 3–7 was carried out on the spiroligomer backbone containing all (S) stereochemistry to identify appropriate functional groups to mimic the side chains of Phe19, Trp23 and Leu26 of the p53 helix.
HDM2 Protein Expression. A fusion protein consisting of residues 1-140 (the plasmid was a generous gift from the lab of Neil Zondlo, University of Delaware) was prepared by over-expression.4 Plasmids were used to transform chemically competent E-coli BL21 Cells (Novagen), and a single colony was used to inoculate 2×4 mL LB media culture tubes containing 0.1 mg/mL ampicillin, at 37 °C overnight. These overnight cultures were used to inoculate a 1 L culture of TB media containing 0.1 mg/ml ampicillin. The culture was incubated at 37 °C with shaking at 250 rpm until the optical density at 600 nm reached to 0.9 absorbance units. Protein overexpression was then induced by the addition of 20% isopropyl β-D-thiogalactoside (IPTG) to 0.4 mM final concentration. The culture was then grown for additional 5 hours at 30 °C. Then cells were harvested at 4 °C by centrifugation at 4500 rpm for 20 min.
The cell pellet was resuspended in chilled 1x Binding Buffer (0.5 M NaCl, 20 mMTris-Hcl, 5 mM imidazole, pH 7.9), frozen and stored at -80 °C until protein purification.
Protein Purification. The frozen cell pellet was thawed at 4 °C and lysed by sonication for 2 minutes with 10 sec on and 20 sec off. Cell debris was pelleted by centrifugation for 30 min at 15000 g, 4 °C and the supernatant was filtered through a 0.2 μm syringe filter. A column was prepared using 2 mL Novagen His-Bind suspended resin and resin was washed with 3 volumes DI water. The flow rate maintained was not more than 0.5 ml/min throughout the purification.
The resin was charged with 5 vol 1x Charge Buffer (50 mM NiSO4) and then equilibrated with 3 vol 1x Binding Buffer (5 mM imidazole). After loading the column with prepared extract, the resin was washed with 10 vol 1x Binding Buffer and then with 6 vol 1x Wash Buffer (10 mM imidazole). Protein was then eluted with 6 vol 1x Elution Buffer (1 M imidazole). The eluate was captured in fractions of 0.5 ml. Fractions were assayed with Coomasie blue and desired fractions were combined and dialyzed using spectra/por 6 Dialysis Membranes of 10,000 MWCO (Spectrum Laboratories) in PBS (pH 7.4, 5 mM EDTA and 0.5 mM DTT) for overnight.
The resulting protein was characterized by SDS-PAGE (4-20% gradient gel) for purity analysis and concentrations were measured by UV analysis.
Fresh protein was used immediately for protein binding experiments. […]
Direct Binding Fluorescence Polarization Experiments. Fluorescence polarization experiments were undertaken to assess the ability of spiroligomers to bind HDM2, a protein with hydrophobic cleft that binds the p53 N-terminal helical domain. Fluoresceinated oligomers (conc. of 10 nM) were incubated for 30 minutes at room temperature with sequential dilutions of […]

[1] = test system: mRNA for HDM2 in Huh7 cells; experiment: quantitative real-time PCR and end-point PCR of HDM2; type: cell-based, human; settings: β-actin as loading control
Method: Huh7 cells were incubated with spiroligomer 1 and Nutlin-3 in media at 2, 5, 10 and 20 µM for 17 hours at 37°C. […] Huh7 cells were then incubated with 1 at 15 µM and cells were harvested at 2, 4, 6, 8, 12 and 24 hours. […] Our hypothesis is that compound 1 stabilizes HDM2 to proteolysis. Studies are underway to determine the mechanism of HDM2 stabilization by compound 1.
RNA Extraction, Reverse Transcription and PCR Analysis. Total RNA was extracted using High Pure RNA Isolation Kit (Roche Applied Science) according to enclosed instructions. cDNA was prepared using RETROscript Reverse Transcription Kit (Ambion). HDM2 primers (Ensembl […]
(forward) and 5'-[…]-3' (reverse). These primers recognize cDNAs of all HDM2 isoforms with p53 binding sequence7 and generate 102 bp amplicon. β-actin primers for 243 bp PCR transcript (Ensemble gene: Actb, ENSRNOG00000034254) were 5’- […]
[…]-3’ (forward) and 5’-[…]-3’ (reverse).
Primers were designed using Primer3Plus Web Interface. cDNA was amplified using FastStart SYBR Green Master Kit (Roche Applied Science). Real-time quantitative PCR was performed using Stratagene Mx 3005P QPCR system. PCR samples were amplified in 40 cycles; each cycle consisted of 60 sec of denaturation at 95 °C, 60 sec of annealing at 60 °C, and 60 sec of elongation at 72 °C. […]
Figure S.7. Real-time quantitative PCR (A.) and end-point PCR (B.) analysis of HDM2 in Huh7 cells […]

CC(C)CN1C(=O)[C@@H]2C[C@@]3(CN2C(=O)[C@@]12C[C@H]1C(=O)N(Cc4ccc(Cl)c(Cl)c4)[C@]4(C[C@@H]5C(=O)N[C@@H](CCc6ccccc6)C(=O)N5C4)C(=O)N1C2)NC(=O)[C@@H](CCCCNC(=S)Nc1ccc2c(c1)C(=O)OC21c2ccc(O)cc2Oc2cc(O)ccc21)NC3=O [Compound 1]
increase in affinity for HDM2 (HDM2_25–117; 1 versus 9, differing only in the stereocenter of the lysine residue): ~17 fold | fluorescence polarization (HDM2_25–117; [hDM2] 0.08106232 nM): 68. 58 millipolarization and 68. 27 millipolarization and 70. 47 millipolarization | fluorescence polarization (HDM2_25–117; [hDM2] 0.1621246 nM): 65. 92 millipolarization and 65. 99 millipolarization and 65. 14 millipolarization | fluorescence polarization (HDM2_25–117; [hDM2] 0.3242493 nM): 75. 62 millipolarization and 76. 93 millipolarization and 62. 45 millipolarization | fluorescence polarization (HDM2_25–117; [hDM2] 0.6484985 nM): 76. 88 millipolarization and 65. 12 millipolarization and 66. 54 millipolarization | fluorescence polarization (HDM2_25–117; [hDM2] 1.296997 nM): 74. 46 millipolarization and 61. 79 millipolarization and 70. 28 millipolarization | fluorescence polarization (HDM2_25–117; [hDM2] 2.593994 nM): 69. 71 millipolarization and 64. 6 millipolarization and 67. 34 millipolarization | fluorescence polarization (HDM2_25–117; [hDM2] 5.187988 nM): 68. 52 millipolarization and 66. 82 millipolarization and 65. 52 millipolarization | fluorescence polarization (HDM2_25–117; [hDM2] 10.37598 nM): 78. 3 millipolarization and 73. 95 millipolarization and 76. 62 millipolarization | fluorescence polarization (HDM2_25–117; [hDM2] 20.75195 nM): 75. 45 millipolarization and 72. 99 millipolarization and 76. 91 millipolarization | fluorescence polarization (HDM2_25–117; [hDM2] 41.50391 nM): 82. 2 millipolarization and 90. 13 millipolarization and 83. 56 millipolarization | fluorescence polarization (HDM2_25–117; [hDM2] 83.00781 nM): 90. 07 millipolarization and 92. 68 millipolarization and 90. 31 millipolarization | fluorescence polarization (HDM2_25–117; [hDM2] 166.0156 nM): 123. 93 millipolarization and 122. 78 millipolarization and 128. 68 millipolarization | fluorescence polarization (HDM2_25–117; [hDM2] 332.0313 nM): 176. 96 millipolarization and 168. 11 millipolarization and 165. 21 millipolarization | fluorescence polarization (HDM2_25–117; [hDM2] 664.0625 nM): 219. 16 millipolarization and 207. 64 millipolarization and 219. 81 millipolarization | fluorescence polarization (HDM2_25–117; [hDM2] 1328.125 nM): 249. 64 millipolarization and 254. 41 millipolarization and 260. 31 millipolarization | fluorescence polarization (HDM2_25–117; [hDM2] 2656.25 nM): 276. 63 millipolarization and 280. 28 millipolarization and 279. 87 millipolarization | fluorescence polarization (HDM2_25–117; [hDM2] 5312.5 nM): 283. 09 millipolarization and 283. 22 millipolarization and 294. 56 millipolarization | fluorescence polarization (HDM2_25–117; [hDM2] 10625 nM): 279. 23 millipolarization and 291. 88 millipolarization and 291. 17 millipolarization | fluorescence polarization (HDM2_25–117; [hDM2] 21250 nM): 289. 83 millipolarization and 291. 58 millipolarization and 284. 9 millipolarization | fluorescence polarization (HDM2_25–117; [hDM2] 42500 nM): 280. 74 millipolarization and 287. 71 millipolarization and 288. 59 millipolarization | difference in binding to HDM2 (HDM2_25–117; epimers 12 and 1): four-fold | Kd (HDM2_25–117; fluorescein labeled ligand at 10 nM, varying HDM2, read-out: Kd (HDM2)): 400 nM | level of mRNA for HDM2 [1]: no effect; also recorded: no difference in HDM2 expression levels
